This passage reports Km and Vmax results from patent US6864076B2, “Antifungal proteins, DNA coding therefore, and hosts incorporating same” (Syngenta Mogen B.V., priority 1997, dated 2005).

Assay in all cases: Oxidase activity (4-AAP/peroxidase, H2O2 production at 510 nm), Michaelis-Menten kinetics with glucose
Experiment [1] deals with glucose oxidase (GOX) from Aspergillus niger (Sigma, G 2133) (Aspergillus niger, UniProt P13006). Format: biochemical. The settings on record: substrate glucose, 50 mM potassium phosphate pH 7.0, 25 μM FAD, 45 ng GOX per assay. The procedure:
(§1) Oxidase activity was measured utilizing the reagent 4-amino-antipyrine (4-AAP), based on Gallo, 1981 (Gallo, Methods in Enzymology, 71:665-668, 1981). A reaction volume of 500 μl contained 50 mM potassium phosphate buffer pH 7.0, 25 μM FAD, 10 mM NaN3, 0.01% Triton X-100, 6 mM 2,4,6,tribromohydroxybenzoic acid, 2 mM 4-AAP, and 10 units horseradish peroxidase. Hydrogenperoxide production was measured at 510 nm. Known amounts of hydrogen peroxide were included for calibration.

The target of experiment [2] is T1, MS59 carbohydrate oxidase from sunflower (Helianthus annuus), SEQ ID NO: 16 (Helianthus annuus, UniProt A0A9K3EIF7).
T1 sequence (A0A9K3EIF7 29-538): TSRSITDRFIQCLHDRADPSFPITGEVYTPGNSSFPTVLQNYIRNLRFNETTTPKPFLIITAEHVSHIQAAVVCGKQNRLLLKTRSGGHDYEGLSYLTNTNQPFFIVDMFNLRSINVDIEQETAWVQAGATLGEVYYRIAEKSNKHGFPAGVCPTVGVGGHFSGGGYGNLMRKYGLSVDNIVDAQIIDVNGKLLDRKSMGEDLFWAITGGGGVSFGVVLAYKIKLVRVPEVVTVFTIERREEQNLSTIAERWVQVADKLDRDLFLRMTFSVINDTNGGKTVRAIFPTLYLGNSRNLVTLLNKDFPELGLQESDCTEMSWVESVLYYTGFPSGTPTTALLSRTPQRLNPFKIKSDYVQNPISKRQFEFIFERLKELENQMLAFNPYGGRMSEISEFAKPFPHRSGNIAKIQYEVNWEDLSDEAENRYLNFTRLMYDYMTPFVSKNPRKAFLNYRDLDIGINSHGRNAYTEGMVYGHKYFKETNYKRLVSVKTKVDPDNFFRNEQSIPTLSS
Format: biochemical, sunflower (Helianthus annuus cv. zebulon). Conditions: substrate glucose; 50 mM potassium phosphate pH 7.0, 25 μM FAD; 17 ng MS59 per assay; per mg protein. The procedure: as §1

In experiment [3] the target is T2, WL64 carbohydrate oxidase from lettuce (Lactuca sativa), SEQ ID NO: 58 (Lactuca sativa, UniProt Q8SA60).
T2 sequence (Q8SA60 28-540): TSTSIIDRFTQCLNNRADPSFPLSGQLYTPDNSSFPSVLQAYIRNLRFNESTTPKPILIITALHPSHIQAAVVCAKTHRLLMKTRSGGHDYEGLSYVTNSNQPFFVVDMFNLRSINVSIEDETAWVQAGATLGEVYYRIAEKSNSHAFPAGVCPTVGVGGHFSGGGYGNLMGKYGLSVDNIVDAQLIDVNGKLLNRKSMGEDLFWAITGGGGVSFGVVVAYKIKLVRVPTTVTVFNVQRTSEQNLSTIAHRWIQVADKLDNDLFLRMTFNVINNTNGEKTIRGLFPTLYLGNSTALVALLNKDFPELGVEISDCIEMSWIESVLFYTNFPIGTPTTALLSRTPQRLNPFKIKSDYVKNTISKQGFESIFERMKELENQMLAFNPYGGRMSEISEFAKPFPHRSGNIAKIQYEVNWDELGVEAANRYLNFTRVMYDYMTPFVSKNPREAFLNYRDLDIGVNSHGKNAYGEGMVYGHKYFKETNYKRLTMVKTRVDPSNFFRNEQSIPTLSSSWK
Format: biochemical, lettuce (Lactuca sativa cv. Lollo bionda). Conditions: substrate glucose; 50 mM potassium phosphate pH 7.0, 25 μM FAD; 29 ng WL64 per assay; per mg protein. As for the experimental part:
as §1

The structures appear in SMILES notation.

Chain of glucose oxidase (GOX) from Aspergillus niger (Sigma, G 2133) (P13006 17-605): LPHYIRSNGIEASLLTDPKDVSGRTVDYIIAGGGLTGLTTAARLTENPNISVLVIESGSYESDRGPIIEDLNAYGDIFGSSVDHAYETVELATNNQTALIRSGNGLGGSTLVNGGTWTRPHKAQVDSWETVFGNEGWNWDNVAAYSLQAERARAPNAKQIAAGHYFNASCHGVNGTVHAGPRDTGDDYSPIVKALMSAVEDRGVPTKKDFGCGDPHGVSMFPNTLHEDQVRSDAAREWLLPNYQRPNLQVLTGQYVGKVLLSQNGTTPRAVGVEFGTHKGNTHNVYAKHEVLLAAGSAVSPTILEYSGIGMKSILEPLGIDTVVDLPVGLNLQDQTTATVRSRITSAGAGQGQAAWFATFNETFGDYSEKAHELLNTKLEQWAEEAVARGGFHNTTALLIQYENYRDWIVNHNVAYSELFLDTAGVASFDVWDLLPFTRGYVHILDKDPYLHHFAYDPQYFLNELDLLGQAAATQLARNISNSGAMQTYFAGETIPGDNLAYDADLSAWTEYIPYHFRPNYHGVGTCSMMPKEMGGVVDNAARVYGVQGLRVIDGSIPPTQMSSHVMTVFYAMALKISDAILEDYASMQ

Broadly, the Km is the concentration of substrate that gives half-maximal velocity. `OC[C@H]1OC(O)[C@H](O)[C@@H](O)[C@@H]1O` (stereo partly shown) [Glucose, glucose]: the Km in experiment [1] (Lineweaver-Burk) turned out to be 359 µM. Moreover, the values for the Vmax in experiment [1] (per mg protein), in experiment [2] and in experiment [3] were 9.7 μmolH2O2/min/mg, 16.8 μmolH2O2/min/mg and 5.7 μmolH2O2/min/mg, respectively.
